The assay addresses T1, Syk (Homo sapiens, UniProt P43405).
T1 construct: purchased Carna Biosciences
As to the kind of experiment: Syk HTRF assay. In kind it is biochemical. A digest of the protocol: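 HTRF kinase assay in HEPES pH 7.6 buffer with MgCl2, DTT and Triton X100; start mix of 87.5 μM ATP and 80 nM biotinylated peptide, 1 h at room temperature. EDTA stop, then Eu-anti-phosphotyrosine/streptavidin-DyLight 647 detection, read as 665/615 nm emission ratio.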
Background: TR-FRET usually uses a lanthanide donor and a delayed reading to cut background.

The mark [1] stands for this setting: read-out: Activity Level (Syk HTRF assay IC50).
Setting [2] is: activity levels A-D, read-out: Activity Level (IC50 in the Syk HTRF assay).
Where [3] appears, read: IC50 activity level, read-out: Activity Level.

This note sets out measurements from US8299056B2 (Signal Pharmaceuticals, LLC, priority 2008, dated 2012).

SMILES strings stand for the structures. Like-named read-outs stand apart in the source and are kept apart here.

Consider `Cc1cc(Nc2nc3cccc(NC4CCOCC4)n3n2)cc2c1cnn2C` [Example 148, N^2-(1,4-dimethyl-1H-indazol-6-yl)-N^5-(tetrahydro-2H-pyran-4-yl)-[1,2,4]triazolo[1,5-a]pyridin-2,5-diamine], for which the IC50 under setting [1] was in the range of 0.005 to 250 nM.
The same measure, in the same setting: in the case of `Cc1n[nH]c2cc(Nc3nc4cccc(N[C@H]5CCOC5)n4n3)ccc12` [Example 182, (S)-N^2-(3-methyl-1H-indazol-6-yl)-N^5-(tetrahydrofuran-3-yl)-[1,2,4]triazolo[1,5-a]pyridin-2,5-diamine] it was 250 to 500 nM.
As for `COc1ccc(Nc2nc3cccc(-c4ccc5nc(CO)[nH]c5c4)n3n2)cn1` [Example 280, (6-(2-(6-methoxypyridin-3-ylamino)-[1,2,4]triazolo[1,5-a]pyridin-5-yl)-1H-benzo[d]imidazol-2-yl)methanol], the IC50 under setting [2] fell in the range of 250 to 500 nM.
Take `N#Cc1ccc(Nc2nc3cccc(N[C@H]4CC[C@@H](O)CC4)n3n2)cc1` [Example 363, 4-(5-(cis-4-hydroxycyclohexylamino)-[1,2,4]triazolo[1,5-a]pyridin-2-ylamino)benzonitrile]: the IC50 under setting [2] lay within 0.005 to 250 nM.
Consider `OCCNc1cc(-c2cccc3nc(Nc4ccccc4)nn23)ccn1` [Example 443, 2-(4-(2-(phenylamino)-[1,2,4]triazolo[1,5-a]pyridin-5-yl)pyridin-2-ylamino)ethanol], for which the IC50 under setting [3] lay within 0.005 to 250 nM.
Regarding `O[C@H]1CCC[C@H](Nc2cccc3nc(Nc4ccc(C(F)(F)F)cc4)nn23)C1` (racemic) [Example 373, (±)trans-3-(2-(4-(trifluoromethyl)phenylamino)-[1,2,4]triazolo[1,5-a]pyridin-5-ylamino)cyclohexanol], under setting [2], the IC50 is 500 to 1000 nM.
In the case of `NC(=O)c1cccc(Nc2nc3cccc(-c4ccccc4)n3n2)c1` [compound 67, 3-(5-phenyl-[1,2,4]triazolo[1,5-a]pyridin-2-ylamino)benzamide], the IC50 under setting [1] was 500 to 1000 nM.
Consider `O[C@H]1CC[C@@H](Nc2cccc3nc(Nc4cccnc4F)nn23)CC1` [Example 322, cis-4-(2-(2-fluoropyridin-3-ylamino)-[1,2,4]triazolo[1,5-a]pyridin-5-ylamino)cyclohexanol], for which, under setting [2], the IC50 lay in the range of 1000 to 10000 nM.
For the compound `Cn1ncc2ccc(Nc3nc4cccc(-c5ccccc5)n4n3)cc21` [compound 54, N-(1-methyl-1H-indazol-6-yl)-5-phenyl-[1,2,4]triazolo[1,5-a]pyridin-2-amine], the IC50 under setting [1] lay in the range of 0.005 to 250 nM.
With `OC1CCN(c2cccc3nc(Nc4ccc(C(F)(F)F)cc4)nn23)CC1` [Example 345, 1-(2-(4-(trifluoromethyl)phenylamino)-[1,2,4]triazolo[1,5-a]pyridin-5-yl)piperidin-4-ol], the IC50 under setting [2] was in the range of 500 to 1000 nM.
Consider `OC[C@H]1CC[C@@H](Nc2cccc3nc(Nc4ccc(C(F)(F)F)cc4)nn23)CC1` [Example 410, cis-(4-(2-(4-(trifluoromethyl)phenylamino)-[1,2,4]triazolo[1,5-a]pyrridin-5-ylamino)cyclohexyl)methanol], for which the IC50 under setting [3] was in the range of 0.005 to 250 nM.
As to `COc1cccc(Nc2nc3cccc(N[C@H]4CC[C@@H](O)CC4)n3n2)c1` [Example 338, cis-4-(2-(3-methoxyphenylamino)-[1,2,4]triazolo[1,5-a]pyridin-5-ylamino)cyclohexanol], the IC50 under setting [2] was 0.005 to 250 nM.
Still for that read-out and setting: in the case of `NC(=O)c1ccc(Nc2nc3cccc(N[C@H]4CC[C@@H](O)CC4)n3n2)c(F)c1` [Example 340, cis-3-fluoro-4-(5-(4-hydroxycyclohexylamino)-[1,2,4]triazolo[1,5-a]pyridin-2-ylamino)benzamide] it was 1000 to 10000 nM.
Turning to `Cc1nnc2cc(Nc3nc4cccc(CC5CCOCC5)n4n3)ccn12` [Example 538, 3-methyl-N-(5-((tetrahydro-2H-pyran-4-yl)methyl)-[1,2,4]triazolo[1,5-a]pyridin-2-yl)-[1,2,4]triazolo[4,3-a]pyridin-7-amine], under setting [3], the IC50 was 1000 to 10000 nM.
`Nc1ccc2cc(Nc3nc4cccc(-c5ccccc5)n4n3)ccc2n1` [compound 17]: under setting [1], the IC50 is 0.005 to 250 nM.
Regarding `Cc1noc2cc(Nc3nc4cccc(N[C@H]5CC[C@@H](O)CC5)n4n3)ccc12` [Example 543, cis-4-(2-(3-methylbenzo[d]isoxazol-6-ylamino)-[1,2,4]triazolo[1,5-a]pyridin-5-ylamino)cyclohexanol], the IC50 under setting [3] lay in the range of 0.005 to 250 nM.
Turning to `Fc1ccc(Nc2nc3cccc(NC4CCCNC4)n3n2)cc1` (stereo in doubt) [Example 462, (R)-N^2-(4-fluorophenyl)-N^5-(piperidin-3-yl)-[1,2,4]triazolo[1,5-a]pyridin-2,5-diamine], under setting [3], the IC50 lay in the range of 1000 to 10000 nM.
Still for that read-out and setting: in the case of `CC1(C)C(=O)Nc2cc(Nc3nc4cccc(CC5CCOC5)n4n3)ccc21` (single isomer, unassigned; enantiomer 1) [Example 561, 3,3-dimethyl-6-(5-((tetrahydrofuran-3-yl)methyl)-[1,2,4]triazolo[1,5-a]pyridin-2-ylamino)indolin-2-one (enantiomer 1)] it was 0.005 to 250 nM.
Consider `NC(=O)c1cc(Nc2nc3cccc(N[C@H]4CC[C@@H](O)CC4)n3n2)ccn1` [Example 255, cis-4-(5-(4-hydroxycyclohexylamino)-[1,2,4]triazolo[1,5-a]pyridin-2-ylamino)picolinamide], for which the IC50 under setting [2] lay in the range of 1000 to 10000 nM.
For the compound `Nc1noc2cc(Nc3nc4cccc(-c5ccccc5)n4n3)ccc12` [compound 44], under setting [1], the IC50 fell in the range of 250 to 500 nM.
On to `O[C@H]1CC[C@@H](Nc2cccc3nc(Nc4cnc5[nH]ccc5c4)nn23)CC1` [Example 297, cis-4-(2-(1H-pyrrolo[2,3-b]pyridin-5-ylamino)-[1,2,4]triazolo[1,5-a]pyridin-5-ylamino)cyclohexanol], for which the IC50 under setting [2] fell in the range of 0.005 to 250 nM.
Regarding `Cc1conc1-c1cccc2nc(Nc3ccccc3)nn12` [Example 435, 5-(4-methylisoxazol-3-yl)-N-phenyl-[1,2,4]triazolo[1,5-a]pyridin-2-amine], the IC50 under setting [3] is 1000 to 10000 nM.
Take `CNC(=O)c1ccc(Nc2nc3cccc(-c4cc(Cl)cc(CCCN)c4)n3n2)cc1` [compound 6, 4-(5-(3-(3-aminopropyl)-5-chlorophenyl)-[1,2,4]triazolo-[1,5-a]pyridin-2-ylamino)-N-methylbenzamide]: the IC50 under setting [1] fell in the range of 0.005 to 250 nM.
Regarding `OCC1CN(c2cccc3nc(Nc4ccc(C(F)(F)F)cc4)nn23)C1` [Example 259, (1-(2-(4-(trifluoromethyl)phenylamino)-[1,2,4]triazolo[1,5-a]pyridin-5-yl)azetidin-3-yl)methanol], the IC50 under setting [2] lay in the range of 0.005 to 250 nM.
For the compound `OCC1CCN(Cc2cccc3nc(Nc4ccc(C(F)(F)F)cc4)nn23)C1` (stereo in doubt) [Example 323, (R)-(1-((2-(4-(trifluoromethyl)phenylamino)-[1,2,4]triazolo[1,5-a]pyridin-5-yl)methyl)pyrrolidin-3-yl)methanol], the IC50 under setting [2] lay within 1000 to 10000 nM.
For `O=C(c1ccccc1)c1cccc2nc(Nc3ccccc3)nn12` [Example 509, phenyl(2-(phenylamino)-[1,2,4]triazolo[1,5-a]pyridin-5-yl)methanone], under setting [3], the IC50 is 1000 to 10000 nM.
Take `Cc1n[nH]c2ccc(Nc3nc4cccc(CC5CCOCC5)n4n3)cc12` [compound 116, N-(3-methyl-1H-indazol-5-yl)-5-((tetrahydro-2H-pyran-4-yl)methyl)-[1,2,4]triazolo[1,5-a]pyridin-2-amine]: the IC50 under setting [1] fell in the range of 0.005 to 250 nM.
With `N[C@H]1CC[C@@H](Oc2cccc3nc(Nc4ccc(C(F)(F)F)cc4)nn23)CC1` [Example 423, cis-5-(4-aminocyclohexyloxy)-N-(4-(trifluoromethyl)phenyl)-[1,2,4]triazolo[1,5-a]pyridin-2-amine], the IC50 under setting [3] lay in the range of 500 to 1000 nM.
`O=C1Cc2ccc(Nc3nc4cccc(N[C@H]5CC[C@@H](O)CC5)n4n3)cc2N1CCO` [Example 185, cis-6-(5-(4-hydroxycyclohexylamino)-[1,2,4]triazolo[1,5-a]pyridin-2-ylamino)-1-(2-hydroxyethyl)indolin-2-one]: the IC50 under setting [1] was 250 to 500 nM.
Turning to `c1cc(NC2CCOCC2)n2nc(Nc3ccc(-c4nc[nH]n4)cc3)nc2c1` [Example 565, N^2-(4-(1H-1,2,4-triazol-3-yl)phenyl)-N^5-(tetrahydro-2H-pyran-4-yl)-[1,2,4]triazolo[1,5-a]pyridine-2,5-diamine], the IC50 under setting [3] is 1000 to 10000 nM.
Still for that read-out and setting: in the case of `NC(=O)[C@H]1CC[C@@H](Nc2cccc3nc(Nc4ccccc4)nn23)CC1` [Example 519, cis-4-(2-(phenylamino)-[1,2,4]triazolo[1,5-a]pyrridin-5-ylamino)cyclohexanecarboxamide] it was 1000 to 10000 nM.
Consider `FC(F)(F)c1ccc(Nc2nc3cccc(Cc4ccncc4)n3n2)cc1` [Example 372, 5-(pyridin-4-ylmethyl)-N-(4-(trifluoromethyl)phenyl)-[1,2,4]triazolo[1,5-a]pyridin-2-amine], for which, under setting [2], the IC50 lay within 1000 to 10000 nM.
In the case of `Fc1ccccc1-c1cccc2nc(Nc3ccccc3)nn12` [compound 80, 5-(2-fluorophenyl)-N-phenyl-[1,2,4]triazolo[1,5-a]pyridin-2-amine], the IC50 under setting [1] was 1000 to 10000 nM.
In the case of `Cn1nc(N)c2ccc(Nc3nc4cccc(-c5ccccc5)n4n3)cc21` [compound 35], the IC50 under setting [1] was 0.005 to 250 nM.
As to `FC(F)(F)c1ccc(Nc2nc3cccc(N4CCCC4)n3n2)cc1` [Example 307, 5-(pyrrolidin-1-yl)-N-(4-(trifluoromethyl)phenyl)-[1,2,4]triazolo[1,5-a]pyridin-2-amine], the IC50 under setting [2] was in the range of 1000 to 10000 nM.
As to `CN1C(=O)C(C)(C)c2ccc(Nc3nc4cccc(CC5CCOCC5)n4n3)cc21` [Example 143, 1,3,3-trimethyl-6-(5-((tetrahydro-2H-pyran-4-yl)methyl)-[1,2,4]triazolo[1,5-a]pyridin-2-ylamino)indolin-2-one], the IC50 under setting [1] lay within 0.005 to 250 nM.
With `CC(c1cccc2nc(Nc3ccc4c(c3)NC(=O)C4(C)C)nn12)C1CCOCC1` (stereo not shown) [Example 159, 3,3-dimethyl-6-(5-(1-(tetrahydro-2H-pyran-4-yl)ethyl)-[1,2,4]triazolo[1,5-a]pyridin-2-ylamino)indolin-2-one], the IC50 under setting [1] was 0.005 to 250 nM.
